The values below come from patent US8975370B2, “Inhibitor proteins of a protease and use thereof” (Universite de Lausanne, priority 2003, dated 2015).

*1 amine or outer side, *2 acyl side, *3 side chain or, on linkers, in order; H or OH if unused. Where a SMILES comes first, the peptide text is derived from it. The star is where a group is joined. AMC = Cc1cc(=O)oc2cc(N*)ccc12; Suc = O=C(CCC(=O)[*:2])[*:1]; MeOSuc = COC(=O)CCC(=O)*

Assay [1] concerns the target T1, human neutrophil elastase (HNE) (Homo sapiens, UniProt P08246).
T1 construct: substrate MeOSuc-AAPV-AMC
T1 sequence (P08246 30-267): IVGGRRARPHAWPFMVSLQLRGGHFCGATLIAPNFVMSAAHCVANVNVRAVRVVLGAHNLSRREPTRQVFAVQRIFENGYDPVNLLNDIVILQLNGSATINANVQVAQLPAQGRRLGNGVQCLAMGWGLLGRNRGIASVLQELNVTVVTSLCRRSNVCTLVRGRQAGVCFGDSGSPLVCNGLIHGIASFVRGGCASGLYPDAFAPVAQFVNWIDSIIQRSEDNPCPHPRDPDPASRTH
The experiment in a line: Km of HNE for its fluorogenic substrate (used for ka correction, eq 2). The format is biochemical. Conditions: substrate MeOSuc-AAPV-AMC, kinetics in 50 mM Tris pH 7.5, 150 mM NaCl, 0.05% Triton X-100, 0.01% BSA, 25° C. The source says: (§1) hK2 and hK3 (PSA) were purified from human semen as previously described (Frenette G, Gervais Y, Tremblay R R, Dube J Y. 1998 “Contamination of purified prostate-specific antigen preparations by kallikrein hK2” J Urol 159, 1375-8), anti-hK2 and anti-PSA monoclonal antibodies were a gift from Professor R R Tremblay, Laval University, Canada. Human chymotrypsin (Chtr), urokinase plasminogen activator (uPA), human kallikrein hK1, human plasma kallikrein (PK), human neutrophil elastase (HNE) and commercial ACT (human plasma α1-antichymotrypsin) were purchased from Calbiochem. […]
(§2) The association rate constants for interactions of hK2, chymotrypsin, PK and HNE with different rACTs were determined under pseudo-first order conditions using the progress curve method (Morrison J F, Walsh C T. 1988 “The behavior and significance of slow-binding enzyme inhibitors” Adv. Enzymol. Relat. Areas Mol. Biol 61, 201-301). […] Each reaction was made in reaction buffer (50 mM Tris pH 7.5, 150 mM NaCl, 0.05% Triton X-100, 0.01% BSA) at 25° C. for 45 min and the rate of product formation was measured using a FLx800 fluorescence 96-well microplate reader (Biotek, USA). […]
(§3) For each inhibitor, a kobs was calculated, for four different concentrations of inhibitors, by non linear regression of the data using equation 1. […]

For assay [2], the system named is human chymotrypsin (Chtr). Nature of the assay: Km of chymotrypsin for its fluorogenic substrate (used for ka correction, eq 2). The note with it: substrate Suc-AAPF-AMC, kinetics in 50 mM Tris pH 7.5, 150 mM NaCl, 0.05% Triton X-100, 0.01% BSA, 25° C. The format is biochemical.
Source text: as §1, §2, §3

Regarding `COC(=O)CCC(=O)N[C@@H](C)C(=O)N[C@@H](C)C(=O)N1CCC[C@H]1C(=O)N[C@H](C(=O)Nc1ccc2c(C)cc(=O)oc2c1)C(C)C` [MeOSuc-AAPV-AMC, MeOSuc-Ala-Ala-Pro-Val-AMC] (MeOSuc-AAPV-{AMC}), in assay [1], the Km (in general, the substrate concentration at which the rate is half of its maximum) came to 130 µM.

With `Cc1cc(=O)oc2cc(NC(=O)[C@H](Cc3ccccc3)NC(=O)[C@@H]3CCCN3C(=O)[C@H](C)NC(=O)[C@H](C)NC(=O)CCC(=O)O)ccc12` [Suc-AAPF-AMC, Suc-Ala-Ala-Pro-Phe-AMC] (Suc-AAPF-{AMC}), in assay [2], the Km was 145 µM.
